Patent US20130236445A1, “Bromelain proteinases (Bromelainases) as chemotherapeutic agents in treating and/or preventing various types of cancer in a mammal” (Garfield Medical Group, priority 2011, published 2013)

Columns and labels:
[1] = rabbit, in vivo
Procedure: After 8 weeks of treatment, the rabbits were anesthetized with injections of ketamine 75 mg/kg in the femoral muscle and sacrificed. Blood samples were collected from the heart of each rabbit to determine the blood analysis consisting of: complete blood count (CBC), Chemistry-7 and 24, (including Liver and renal function tests), lipid profiles (including Total cholesterol, HDL, LDL, VLDL, and triglycerides), coagulation factors consisting of; prothrombin time (PT), partial thromboplastin time (PPT), and immune-globulin-E.
All laboratory blood analysis were performed on rabbits of all 7 groups, The results were tested using student t-test and Microsoft Excel-7 programs.

[2] = examination of internal organs of bromelain-treated rabbits; set-up: species or system white rabbits; conditions: rabbit, in vivo
Procedure: One half of each organ was frozen and the other half was fixed with 10% neutral buffered formalin for 24 hours. Then the fixed organs were washed […] stepwise dehydrated with 70%, 80%, 90%, 100% ethanol and then embedded in paraffin by using Shandon-Histocentre-2. The embedded organ blocks were sectioned in 4 µm thickness with a microtome (McBain, M 820, American Optical Co. USA) and stained with hematoxylin and eosin stain (H.E. stain). The stained specimens were made transparent with xylene, and mounted with permount on microslides.

[3] = system: TNFα, II-2; conditions: in vitro; cited from earlier work
[4] = system: CD44; conditions: in vitro; cited from earlier work
[5] = system: tumor cells; conditions: in vitro; cited from earlier work
[6] = system: tumor cell; conditions: in vitro; cited from earlier work
[7] = system: tumor cell; conditions: in vitro; cited from earlier work; remark: listed apart in the source

Row | GGTP [1] | HDL [1] | Hb [1] | SGOT [1] | SGPT [1] | TC (total cholesterol) [1] | TRG (triglycerides) [1] | WBC [1] | internal organs, microscopic examination (H.E. stain) [2] | Substance | laboratory blood tests, differences between groups [1] | secretion of TNFα, II-2, effect [3] | CD44 expression on metastatic cells, effect [4] | immunocytotoxicity of lymphocytes against tumor cells, effect [5] | tumor cell proliferation, effect [6] | tumor cell invasion through extracellular matrix, effect [7]
1 | 7+—1 | 43.6+—16.5 mg/ | 11.9+—1.9 gm/dl | 110.8+—30.7 u/l | 71.2+—3.8 u/l | 175.6+—36.8 mg/dl | 92.6+—38.8 mg/dl | 7.3+—2.2 k/ul | no pathological abnormalities or lesions | Bromelain | no differences among or within each groups | – | – | – | – | –
2 | – | – | – | – | – | – | – | – | – | Ananain [Bromelain F9] | – | ↑ | ↓ | ↑ | ↓ | =
3 | – | – | – | – | – | – | – | – | – | Stem bromelain [Bromelain F4] | – | – | – | – | – | =
